Laboratory results reported in patent US12187702B2, “Sulfonamideurea compounds” (Inflazome Limited, priority 2018, dated 2025).
Counter-ions that a name gives are not always drawn.

Biological target: NLRP3 (Homo sapiens, UniProt Q96P20)
Assay: THP-1 cells pyroptosis assay (LPS + nigericin, resazurin read-out)
Assay type: cell-based
Design: Seed THP-1 cells (25,000 cells/well) containing 1.0 μg/ml LPS; host or cells: THP-1 cells
Details: THP-1 cells, 1 μg/ml LPS, 5 μM nigericin; NLRP3 inhibitory activity; read-out: THP IC50
Method: THP-1 cells (ATCC #TIB-202) were grown in RPMI containing L-glutamine (Gibco #11835) supplemented with 1 mM sodium pyruvate (Sigma #S8636) and penicillin (100 units/ml)/streptomycin (0.1 mg/ml) (Sigma #P4333) in 10% Fetal Bovine Serum (FBS) (Sigma #F0804). The cells were routinely passaged and grown to confluency (˜10^6 cells/ml). On the day of the experiment, THP-1 cells were harvested and resuspended into RPMI medium (without FBS). The cells were then counted and viability (>90%) checked by Trypan blue (Sigma #T8154). Appropriate dilutions were made to give a concentration of 625,000 cells/ml. To this diluted cell solution was added LPS (Sigma #L4524) to give a 1 μg/ml Final Assay Concentration (FAC). 40 μl of the final preparation was aliquoted into each well of a 96-well plate. The plate thus prepared was used for compound screening.
The following method step-by-step assay was followed for compound screening. • 1. Seed THP-1 cells (25,000 cells/well) containing 1.0 μg/ml LPS in 40 μl of RPMI medium (without FBS) in 96-well, black walled, clear bottom cell culture plates coated with poly-D-lysine (VWR #734-0317) • 2. Add 5 μl compound (8 points half-log dilution, with 10 μM top dose) or vehicle (DMSO 0.1% FAC) to the appropriate wells • 3. Incubate for 3 hrs at 37° C., 5% CO2 • 4. Add 5 μl nigericin (Sigma #N7143) (FAC 5 μM) to all wells • 5. Incubate for 1 hr at 37° C., 5% CO2 • 6. At the end of the incubation period, spin plates at 300×g for 3 mins and remove supernatant • 7. Then add 50 μl of resazurin (Sigma #R7017) (FAC 100 μM resazurin in RPMI medium without FBS) and incubate plates for a further 1-2 hrs at 37° C. and 5% CO2 • 8. Plates were read in an Envision reader at Ex 560 nm and Em 590 nm • 9. IC50 data is fitted to a non-linear regression equation (log inhibitor vs response-variable slope 4-parameters)

NLRP3, sequence (Q96P20 whole entry): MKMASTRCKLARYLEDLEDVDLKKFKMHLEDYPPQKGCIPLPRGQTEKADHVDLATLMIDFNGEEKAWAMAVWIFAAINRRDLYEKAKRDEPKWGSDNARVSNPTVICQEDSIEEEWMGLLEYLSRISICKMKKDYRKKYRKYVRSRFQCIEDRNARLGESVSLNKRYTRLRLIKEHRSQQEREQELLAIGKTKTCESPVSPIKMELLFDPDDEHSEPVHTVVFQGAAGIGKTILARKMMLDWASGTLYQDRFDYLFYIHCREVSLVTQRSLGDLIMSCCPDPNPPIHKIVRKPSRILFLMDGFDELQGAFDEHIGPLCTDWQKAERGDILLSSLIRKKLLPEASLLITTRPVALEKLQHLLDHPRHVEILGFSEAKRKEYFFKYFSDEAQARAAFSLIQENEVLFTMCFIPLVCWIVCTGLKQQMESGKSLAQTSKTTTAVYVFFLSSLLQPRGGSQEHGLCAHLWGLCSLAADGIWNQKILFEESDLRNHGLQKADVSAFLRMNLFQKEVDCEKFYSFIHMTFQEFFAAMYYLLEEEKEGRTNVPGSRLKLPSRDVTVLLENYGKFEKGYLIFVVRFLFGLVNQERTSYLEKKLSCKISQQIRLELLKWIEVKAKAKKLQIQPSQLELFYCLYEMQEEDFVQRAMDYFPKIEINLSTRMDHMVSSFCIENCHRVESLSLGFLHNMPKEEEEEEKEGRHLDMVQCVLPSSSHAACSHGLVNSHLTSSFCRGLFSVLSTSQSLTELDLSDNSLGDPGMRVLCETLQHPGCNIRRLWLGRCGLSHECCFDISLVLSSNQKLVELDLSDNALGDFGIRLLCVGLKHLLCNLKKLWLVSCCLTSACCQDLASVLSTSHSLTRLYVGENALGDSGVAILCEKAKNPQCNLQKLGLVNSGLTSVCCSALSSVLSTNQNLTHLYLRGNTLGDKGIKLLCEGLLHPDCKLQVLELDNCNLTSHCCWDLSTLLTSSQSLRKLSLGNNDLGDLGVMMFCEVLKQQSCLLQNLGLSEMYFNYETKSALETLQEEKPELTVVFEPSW

| Structure (SMILES) | IC50 [nM] |
| --- | --- |
| CN1CC2CN(S(=O)(=O)NC(=O)Nc3c4c(cc5c3CCC5)CCC4)CC2C1 (stereo not drawn) [Example 99, N-((1,2,3,5,6,7-Hexahydro-s-indacen-4-yl)carbamoyl)-5-methylhexahydropyrrolo[3,4-c]pyrrole-2(1H)-sulfonamide] | < 5000 |
| CCN1CCN(S(=O)(=O)NC(=O)Nc2c3c(cc4c2CCC4)CCC3)CC1 [Example 21, 4-Ethyl-N-((1,2,3,5,6,7-hexahydro-s-indacen-4-yl)carbamoyl) piperazine-1-sulfonamide] | < 5000 |
| COCCN(C)S(=O)(=O)NC(=O)Nc1c2c(cc3c1CCC3)CCC2 [Example 7, 3-Methyl-((2-Methoxyethyl)sulfamoyl)-1-(1,2,3,5,6,7-hexahydro-s-indacen-4-yl)urea, potassium salt] | < 1000 |
| CCN1CCCC(NS(=O)(=O)NC(=O)Nc2c3c(cc4c2CCC4)CCC3)C1 (stereo not drawn) [Example 19, 3-(N-(1-Ethylpiperidin-3-yl)sulfamoyl)-1-(1,2,3,5,6,7-hexahydro-s-indacen-4-yl)urea, potassium salt] | < 1000 |
| CN1C2CC1CN(S(=O)(=O)NC(=O)Nc1c3c(cc4c1CCC4)CCC3)C2 [Example 100, N-((1,2,3,5,6,7-Hexahydro-s-indacen-4-yl)carbamoyl)-6-methyl-3,6-diazabicyclo[3.1.1]heptane-3-sulfonamide] | < 500 |
| CCN(CC)[C@H]1C[C@H]2CC[C@@H](C1)N2S(=O)(=O)NC(=O)Nc1c2c(cc3c1CCC3)CCC2 [Example 64, (1R,3r,5S)-3-(Diethylamino)-N-((1,2,3,5,6,7-hexahydro-s-indacen-4-yl)carbamoyl)-8-azabicyclo[3.2.1]octane-8-sulfonamide] | < 500 |
| Cn1ccc(NS(=O)(=O)NC(=O)Nc2c3c(cc4c2CCC4)CCC3)n1 [Example 55, 3-((N-(1-Methyl-1H-pyrazol-3-yl))sulfamoyl)-1-(1,2,3,5,6,7-hexahydro-s-indacen-4-yl)urea, potassium salt] | < 1000 |
| O=C(Nc1c2c(cc3c1CCC3)CCC2)NS(=O)(=O)N1CCN2CCC1C2 (stereo not drawn) [Example 60, potassium salt] | < 1000 |
| CNCCN(C)S(=O)(=O)NC(=O)Nc1c2c(cc3c1CCC3)CCC2 [Example 32, 3-(N-Methyl-N-(2-(methylamino)ethyl))sulfamoyl)-1-(1,2,3,5,6,7-hexahydro-s-indacen-4-yl)urea, potassium salt] | < 5000 |
| CN(C)CCCCNS(=O)(=O)NC(=O)Nc1c2c(cc3c1CCC3)CCC2 [Example 48, 3-(N-(4-(Dimethylamino)butyl)sulfamoyl)-1-(1,2,3,5,6,7-hexahydro-s-indacen-4-yl)urea, potassium salt] | < 1000 |
| Cc1nc(C(C)C)c(NC(=O)NS(=O)(=O)N(C)C2CCN(C)C2)n1-c1ccncc1 (stereo not drawn) [Example 109, 1-(5-Isopropyl-2-methyl-3-(4-pyridyl)imidazol-4-yl)-3-(methyl-(1-methylpyrrolidin-3-yl)sulfamoyl)urea] | < 10000 |
| O=C(Nc1c2c(cc3c1CCC3)CCC2)NS(=O)(=O)NCCCCO [Example 54, 3-((N-(4-Hydroxybutyl))sulfamoyl)-1-(1,2,3,5,6,7-hexahydro-s-indacen-4-yl)urea, potassium salt] | < 5000 |
| CN(C)CCN(CCc1ccccc1)S(=O)(=O)NC(=O)Nc1c2c(cc3c1CCC3)CCC2 [Example 13, 3-(N-(2-(Dimethylamino)ethyl)-N-phenethylsulfamoyl)-1-(1,2,3,5,6,7-hexahydro-s-indacen-4-yl)urea, potassium salt] | < 1000 |
| CCN(CC)[C@@H]1C[C@H]2CC[C@@H](C1)N2S(=O)(=O)NC(=O)Nc1c2c(cc3c1CCC3)CCC2 [Example 78, (1R,3s,5S)-3-(Diethylamino)-N-((1,2,3,5,6,7-hexahydro-s-indacen-4-yl)carbamoyl)-8-azabicyclo[3.2.1]octane-8-sulfonamide] | < 5000 |
| CN(C)C(C)(C)CNS(=O)(=O)NC(=O)Nc1c2c(cc3c1CCC3)CCC2 [Example 57, 3-(N-(2-(Dimethylamino)-2-methylpropyl)sulfamoyl)-1-(1,2,3,5,6,7-hexahydro-s-indacen-4-yl)urea, potassium salt] | < 5000 |
